Measurements: US20250108119A1, “NOVEL STEROID PAYLOADS, STEROID LINKERS, ADCs CONTAINING AND USE THEREOF” (IMMUNEXT, INC., priority 2021, published 2025)

Test system: LPS stimulated human PBMCs
Test: LPS stimulated human PBMC, IL-1β and IL-6 ELISA
Assay type: cell-based
Details: for inhibition of IL-1β production / inhibition of IL-1β and IL-6 production: 24 hr; for inhibition of IL-1β and IL-6 production: Experiment 1: free payload 1000-1 nM, 1 ng/ml LPS
Protocol: The potency of novel steroids was assessed in a model of LPS stimulated human peripheral blood mononuclear cells (PBMCS). Stimulated PBMCs in this assay produce multiple pro-inflammatory cytokines1.
In all the following experiments, human PBMC, isolated from 1-2 healthy donors per study, were stimulated with LPS to induce cytokine production.
LPS was added either immediately after addition of free payload, or in the case of conjugates, four hours after addition of the conjugate.
Cells were plated in flat bottom 96 well plates at a final concentration of 150,000 cells/well, with technical duplicates for each condition.
Test agents were serially diluted in the assay media and added to a final concentration of 1,000 nM-1 nM or 0.2 nM depending on the assay or as a no treatment control.
LPS stimulation was added to a final concentration of 1 ng/ml.
Human IL-1β and IL-6 ELISA kits were used on supernatants according to vendor protocols. All graphs were prepared with GraphPad (Prism).

[1] = Experiment 6: free payload 1000-0.16 nM

SMILES: C[C@]12C=CC(=O)C=C1[C@@H](F)C[C@H]1[C@@H]3C[C@H]4O[C@@H](c5ccc(CC6CC7(C6)CC(NC(=O)[C@H](CCC(=O)O)NC(=O)CNC(=O)CBr)C7)cc5)O[C@@]4(C(=O)COP(=O)(O)O)[C@@]3(C)C[C@H](O)[C@@]12F (stereo partly drawn) [INX A12, (S)-4-(2-(2-bromoacetamido)acetamido)-5-((6-(4-((2S,6aS,6bR,7S,8aS,8bS,10R,11aR,12aS,12bS)-2,6b-difluoro-7-hydroxy-6a,8a-dimethyl-4-oxo-8b-(2-(phosphonooxy)acetyl)-2,4,6a,6b,7,8,8a,8b,11a,12,12a,12b-dodecahydro-1H-naphtho[2′,1′:4,5]indeno[1,2-d][1,3]dioxol-10-yl)benzyl)spiro[3.3]heptan-2-yl)amino)-5-oxopentanoic acid]
- potency of conjugated linker payloads over INX J (conclusions): enhanced potency

SMILES: C[C@]12C=CC(=O)C=C1CC[C@@H]1[C@@H]2[C@@H](O)C[C@@]2(C)[C@H]1C[C@H]1O[C@H](c3cnc(Cc4cccc(N)c4)s3)O[C@]12C(=O)CO [INX-SM-56, (6aR,6bS,7S,8aS,8bS,10S,11aR,12aS,12bS)-10-(2-(3-aminobenzyl)thiazol-5-yl)-7-hydroxy-8b-(2-hydroxyacetyl)-6a,8a-dimethyl-1,2,6a,6b,7,8,8a,8b, 11a,12,12a,12b-dodecahydro-4H-naphtho[2′,1′:4,5]indeno[1,2-d][1,3]dioxol-4-one]
- inhibition of IL-1β production (Experiment 2: free payload 1000-1 nM, n=1 donor): did not show inhibition

SMILES: C[C@]12C=CC(=O)C=C1CC[C@@H]1[C@@H]2[C@@H](O)C[C@@]2(C)[C@H]1C[C@H]1O[C@H](C34CC(Cc5cccc(N)c5)(C3)C4)O[C@]12C(=O)CO [INX-SM-54, (6aR,6bS,7S,8aS,8bS,10S,11aR,12aS,12bS)-10-(3-(3-aminobenzyl)bicyclo[1.1.1]pentan-1-yl)-7-hydroxy-8b-(2-hydroxyacetyl)-6a,8a-dimethyl-1,2,6a,6b,7,8,8a,8b,11a,12,12a,12b-dodecahydro-4H-naphtho[2′,1′:4,5]indeno[1,2-d][1,3]dioxol-4-one]
- inhibition of IL-1β and IL-6 production (n=1 donor): did not show inhibition

SMILES: C[C@]12C=CC(=O)C=C1CC[C@@H]1[C@@H]2[C@@H](O)C[C@@]2(C)[C@H]1C[C@H]1O[C@@H](c3ccc(CC4CC45CCC(NC(=O)[C@H](CCC(=O)O)NC(=O)CNC(=O)CBr)CC5)cc3)O[C@]12C(=O)CO (stereo partly drawn) [INX A9, (4S)-4-(2-(2-bromoacetamido)acetamido)-5-((1-(4-((6aR,6bS,7S,8aS,8bS,10R,11aR,12aS,12bS)-7-hydroxy-8b-(2-hydroxyacetyl)-6a,8a-dimethyl-4-oxo-2,4,6a,6b,7,8,8a,8b,11a,12,12a,12b-dodecahydro-1H-naphtho[2′,1′:4,5]indeno[1,2-d][1,3]dioxol-10-yl)benzyl)spiro[2.5]octan-6-yl)amino)-5-oxopentanoic acid]
- potency of conjugated linker payloads over INX J (conclusions): enhanced potency

SMILES: C[C@]12C=CC(=O)C=C1CC[C@@H]1[C@@H]2[C@@H](O)C[C@@]2(C)[C@H]1C[C@H]1O[C@@H](c3ccc(CC4CC5(C4)CC(NC(=O)[C@H](CCC(=O)O)NC(=O)CNC(=O)CBr)C5)cc3)O[C@]12C(=O)COP(=O)(O)O (stereo partly drawn) [INX A7, (S)-4-(2-(2-bromoacetamido)acetamido)-5-((6-(4-((6aR,6bS,7S,8aS,8bS,10R,11aR,12aS,12bS)-7-hydroxy-6a,8a-dimethyl-4-oxo-8b-(2-(phosphonooxy)acetyl)-2,4,6a,6b,7,8,8a,8b,11a,12,12a,12b-dodecahydro-1H-naphtho[2′,1′:4,5]indeno[1,2-d][1,3]dioxol-10-yl)benzyl)spiro[3.3]heptan-2-yl)amino)-5-oxopentanoic acid]
- potency of conjugated linker payloads over INX J (conclusions): enhanced potency

SMILES: C[C@]12C=CC(=O)C=C1[C@@H](F)C[C@H]1[C@@H]3C[C@H]4O[C@H](c5ccc(CC67CC(N)(C6)C7)cc5)O[C@@]4(C(=O)CO)[C@@]3(C)C[C@H](O)[C@@]12F [INX-SM-74, (2S,6aS,6bR,7S,8aS,8bS,10S,11aR,12aS,12bS)-10-(4-((3-aminobicyclo[1.1.1]pentan-1-yl)methyl)phenyl)-2,6b-difluoro-7-hydroxy-8b-(2-hydroxyacetyl)-6a,8a-dimethyl-1,2,6a,6b,7,8,8a,8b,11a,12,12a,12b-dodecahydro-4H-naphtho[2′,1′:4,5]indeno[1,2-d][1,3]dioxol-4-one]
- potency of free payloads (conclusions): moderate potency albeit much weaker than the R stereoisomer with the same halogenation

SMILES: C[C@]12C=CC(=O)C=C1CC[C@H]1[C@@H]3C[C@H]4O[C@@H](c5ccc(CC67CC(N)(C6)C7)cc5)O[C@@]4(C(=O)CO)[C@@]3(C)C[C@H](O)[C@@]12F [INX-SM-13, (6aS,6bR,7S,8aS,8bS,10R,11aR,12aS,12bS)-10-(4-((3-aminobicyclo[1.1.1]pentan-1-yl)methyl)phenyl)-6b-fluoro-7-hydroxy-8b-(2-hydroxyacetyl)-6a,8a-dimethyl-1,2,6a,6b,7,8,8a,8b,11a,12,12a,12b-dodecahydro-4H-naphtho[2′,1′:4,5]indeno[1,2-d][1,3]dioxol-4-one]
- inhibition of IL-1β production [1]: did not lead to increased potency over the non-fluorinated payload

SMILES: C[C@]12C=CC(=O)C=C1[C@@H](F)C[C@H]1[C@@H]3C[C@H]4O[C@@H](c5ccc(CC67CC(N)(C6)C7)cc5)O[C@@]4(C(=O)CO)[C@@]3(C)C[C@H](O)[C@@]12F [INX-SM-24, (2S,6aS,6bR,7S,8aS,8bS,10R,11aR,12aS,12bS)-10-(4-((3-aminobicyclo[1.1.1]pentan-1-yl)methyl)phenyl)-2,6b-difluoro-7-hydroxy-8b-(2-hydroxyacetyl)-6a,8a-dimethyl-1,2,6a,6b,7,8,8a,8b,11a,12,12a,12b-dodecahydro-4H-naphtho[2′,1′:4,5]indeno[1,2-d][1,3]dioxol-4-one]
- inhibition of IL-1β production [1]: increased potency over the non-fluorinated INX-SM-3

SMILES: C[C@]12C=CC(=O)C=C1CC[C@@H]1[C@@H]2[C@@H](O)C[C@@]2(C)[C@H]1C[C@H]1O[C@H](c3ccc(CC45CC(N)(C4)C5)cc3)O[C@]12C(=O)CO [INX-SM-53, (6aR,6bS,7S,8aS,8bS,10S,11aR,12aS,12bS)-10-(4-((3-aminobicyclo[1.1.1]pentan-1-yl)methyl)phenyl)-7-hydroxy-8b-(2-hydroxyacetyl)-6a,8a-dimethyl-1,2,6a,6b,7,8,8a,8b, 11a,12,12a,12b-dodecahydro-4H-naphtho[2′,1′:4,5]indeno[1,2-d][1,3]dioxol-4-one]
- inhibition of IL-1β and IL-6 production (n=1 donor): did not show inhibition
